Patent US7247456B2, “Preparation of fucosylated oligosaccharides” (Neose Technologies, Inc., priority 1998, dated 2007)
“Also recorded” adds a separate entry of the source. Like-named read-outs stand apart in the source and are kept apart here. Values belong to the molecule of their own block, whether it stands above or below them.

Key:
[1] = target: T1, E. coli K12 GDP-mannose dehydratase (GDP-mannose 4,6-dehydratase, GMD), recombinant wild type from pTGK:GMD (Escherichia coli, UniProt P0AC88); test: Linearity of the GDP-mannose dehydratase assay with time (product inhibition); format: biochemical; conditions: linear up to 30 minutes, up to 90% of substrate consumed
T1 construct: made in house; host or cells: E. coli JM101 (plasmid pTGK:GMD), supernatant of French press lysate
Experimental: (§1) C. Assay of GDP-Mannose Dehydratase
(§2) To assay GDP-mannose dehydratase activity, a reverse phase HPLC assay was developed. […] GDP-mannose dehydratase activity was determined by reacting GDP-mannose dehydratase extract with 480 nmole of GDP-mannose in 50 mM Tris pH 7.5, 0.15 mM NADP^+ (NADP^+ is absolutely required for GDP-mannose dehydratase activity) in a 100 μl reaction volume. Twenty μl of the assay mix was injected over the C18 column.
(§3) By comparing the peak area of the no enzyme control, corresponding to 200 nmole, the decrease in the peak area of GDP-mannose was used to directly measure the activity of GDP-mannose dehydratase by the following formulae: (No enzyme peak area)−(enzyme peak area)=(Peak area of GDP-mannose consumed) 1. (Peak area of GDP-mannose consumed)/(No enzyme peak area)=% of 200 nmole GDP-mannose consumed. 2.
Samples were thawed and immediately injected over an aquasil reverse phase HPLC column.

GDP-mannose dehydratase [2] = target: T2, GDP-mannose dehydratase (Escherichia coli, UniProt P0AC88); test: GDP-mannose dehydratase reverse phase HPLC activity assay; format: biochemical, E. coli; conditions: for effect on GDP-mannose dehydratase activity: concentrations ranging from 1-20 mM
T2 construct: made in house; host or cells: E. coli JM101 (plasmid pTGK:GMD), French-press lysate supernatant
Experimental: (§4) To assay GDP-mannose dehydratase activity, a reverse phase HPLC assay was developed. […] […] Twenty μl of the assay mix was injected over the C18 column.
as §3
(§5) To control for any carryover loss upon HPLC injection, 10 nmole of CTP was added to the sample to be analyzed.

[3] = target: T1, E. coli K12 GDP-mannose dehydratase (GDP-mannose 4,6-dehydratase, GMD), recombinant wild type from pTGK:GMD; test: Inhibition of GDP-mannose dehydratase (GMD) by GDP-fucose, reverse phase HPLC assay (FIG. 5); format: biochemical
Experimental: as §1, §2, §3, §5
Since GDP-mannose dehydratase represents the first committed step in GDP-fucose biosynthesis it is possible that GDP-fucose is a feedback inhibitor of the enzyme. To determine if this is true, the standard assay was performed in the presence of increasing amounts of GDP-fucose. […]

GDP-mannose dehydratase [4] = target: T3, GDP-mannose dehydratase (Sus scrofa, UniProt F1RX12); conditions: cited from earlier work
T3 sequence (F1RX12 1-372): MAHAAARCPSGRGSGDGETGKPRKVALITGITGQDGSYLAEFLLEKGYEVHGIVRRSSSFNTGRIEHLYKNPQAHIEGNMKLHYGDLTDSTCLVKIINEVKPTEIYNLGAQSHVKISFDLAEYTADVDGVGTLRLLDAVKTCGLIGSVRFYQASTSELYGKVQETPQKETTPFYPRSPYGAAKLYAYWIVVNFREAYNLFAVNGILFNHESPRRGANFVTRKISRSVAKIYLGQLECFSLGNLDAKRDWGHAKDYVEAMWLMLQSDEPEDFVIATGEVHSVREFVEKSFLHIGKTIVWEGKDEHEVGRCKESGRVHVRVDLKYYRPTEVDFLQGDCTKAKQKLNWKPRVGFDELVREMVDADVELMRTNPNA

GDP-mannose dehydratase [5] = conditions: cited from earlier work
fucosyltransferase V = target: T4, fucosyltransferase V (Homo sapiens, UniProt Q11128); conditions: literature statement; cited from earlier work
T4 sequence (Q11128 1-374): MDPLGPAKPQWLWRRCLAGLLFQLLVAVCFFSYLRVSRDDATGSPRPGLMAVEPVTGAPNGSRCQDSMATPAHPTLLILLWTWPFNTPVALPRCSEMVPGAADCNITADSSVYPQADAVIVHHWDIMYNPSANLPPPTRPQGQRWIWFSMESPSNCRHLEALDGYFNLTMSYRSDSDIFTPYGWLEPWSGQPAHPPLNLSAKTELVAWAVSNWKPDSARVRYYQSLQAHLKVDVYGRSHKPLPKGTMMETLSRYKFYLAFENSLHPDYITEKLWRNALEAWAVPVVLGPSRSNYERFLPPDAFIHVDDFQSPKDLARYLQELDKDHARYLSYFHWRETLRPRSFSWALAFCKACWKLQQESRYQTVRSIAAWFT

fucosyltransferases = conditions: cited from earlier work
[6] = target: T5, fucosyltransferase V (FT V) (Homo sapiens, UniProt Q11128); test: Inhibition of fucosyltransferase V; format: biochemical; conditions: compared with GDP
T5 construct: printed for the preparative synthesis
T5 sequence (Q11128 1-374): T4 sequence (Q11128 1-374)

YEF B = YEF B (Escherichia coli, UniProt P32055, E255D/L256V); conditions: for YEF B Activity %: none = 100; for effect on YEF B activity: varying concentrations of metal ion
Experimental: To assay YEF B activity, a reverse phase HPLC assay was developed. An Aquesil C18 reverse phase column was set up in-line on a Beckman 126 solvent monitor. The column was eluted isocratically with 0.5M KH2PO4 over twenty minutes with a flow rate of 1 ml/min. A photodiode array detector was employed to monitor the elution scanning the 210-300 nm wavelength range.
A coupled assay was employed to assay YEF B activity. This was required since its substrate, GDP-4-keto-6-deoxymannose, is unstable and not commercially available. Twenty mUnit of GDP-mannose dehydratase was allowed to react with 480 nMole of GDP-mannose for 20 minutes under standard assay conditions as previously. […] The reaction was allowed to proceed for ten minutes at which point the reaction was stopped by freezing on dry ice. After thawing 10 μl aliquots were analyzed by reverse phase HPLC analysis. The amount of GDP fucose formed was calculated by analyzing a separate assay mix in the absence of GDP-mannose dehydratase to yield a 100% value for the absorption peak of GDP-mannose. […] to yield percentage of GDP-fucose formed. (% GDP-fucose)(nMole GDP-mannose in reaction)=nMole GDP-fucose formed.
The assay pH was varied from 6.5 to 8.0 using MES and Tris as buffers. The standard assay mix contained 20 mUnit GDP-mannose dehydratase, […] GDP-mannose, […], 10 mUnit glucose dehydrogenase (to recycle NADPH utilized by YEF B), 50 mM buffer at the appropriate pH and YEF B at appropriate dilution. The reaction was allowed to proceed for 15 minutes at 37° C. and immediately frozen on dry ice to stop the reaction. Ten μl aliquots were removed after thawing and analyzed by reverse phase HPLC.

[7] = target: T1, E. coli K12 GDP-mannose dehydratase (GDP-mannose 4,6-dehydratase, GMD), recombinant wild type from pTGK:GMD; test: Cofactor (NADP+) dependence of GDP-mannose dehydratase (Table 5); format: biochemical
Experimental: as §1, §2, §3, §5

GDP-mannose dehydratase [8] = target: T6, GDP-mannose dehydratase (Escherichia coli, UniProt P0AC88); test: GDP-mannose dehydratase reverse phase HPLC activity assay; format: biochemical, E. coli; conditions: 10 mUnit alkaline phosphatase included in the assay
T6 construct: made in house; host or cells: E. coli JM101 (plasmid pTGK:GMD), French-press lysate supernatant
T6 sequence (P0AC88 whole entry, looked up): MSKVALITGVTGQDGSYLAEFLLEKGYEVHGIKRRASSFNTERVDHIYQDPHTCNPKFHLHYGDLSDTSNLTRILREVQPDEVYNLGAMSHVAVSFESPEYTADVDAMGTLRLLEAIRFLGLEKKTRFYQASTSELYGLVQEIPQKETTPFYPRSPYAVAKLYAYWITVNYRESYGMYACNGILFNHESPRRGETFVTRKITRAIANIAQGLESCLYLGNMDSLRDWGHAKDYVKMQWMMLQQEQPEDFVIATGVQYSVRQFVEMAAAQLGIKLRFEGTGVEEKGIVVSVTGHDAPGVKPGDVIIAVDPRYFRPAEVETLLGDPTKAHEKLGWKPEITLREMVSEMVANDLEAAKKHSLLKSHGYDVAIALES
Experimental: as §4, §3, §5

YEF B, sequence (P32055 whole entry E255D/L256V): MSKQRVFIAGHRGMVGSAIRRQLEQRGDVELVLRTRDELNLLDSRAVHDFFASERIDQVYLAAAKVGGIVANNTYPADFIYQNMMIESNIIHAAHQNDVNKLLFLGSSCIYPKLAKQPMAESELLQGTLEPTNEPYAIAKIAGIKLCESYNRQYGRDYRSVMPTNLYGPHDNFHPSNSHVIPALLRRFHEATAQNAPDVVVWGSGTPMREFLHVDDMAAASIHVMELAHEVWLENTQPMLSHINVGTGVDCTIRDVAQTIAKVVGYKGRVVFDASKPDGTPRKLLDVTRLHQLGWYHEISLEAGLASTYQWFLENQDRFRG

Molecule: C[C@H]1O[C@H](OP(=O)(O)OP(=O)(O)OC[C@H]2O[C@@H](n3cnc4c(=O)[nH]c(N)nc43)[C@H](O)[C@@H]2O)[C@@H](O)[C@@H](O)C1=O [GDP-4-keto-6 deoxymannose, GDP-4-keto-6-deoxymannose]
inhibition of GDP-mannose dehydratase by the product [1]: does not inhibit the enzyme

Molecule: C[C@H]1O[C@H](OP(=O)(O)OP(=O)(O)OC[C@H]2O[C@@H](n3cnc4c(=O)[nH]c(N)nc43)[C@H](O)[C@@H]2O)[C@@H](O)[C@@H](O)C1=O [GDP-4-keto-6-deoxymannose]
inhibition of GDP-mannose dehydratase by its product (GDP-mannose dehydratase [2]; assay linear up to 90% of substrate consumed): does not inhibit the enzyme

Molecule: C[C@@H]1O[C@H](OP(=O)(O)OP(=O)(O)OC[C@H]2O[C@@H](n3cnc4c(=O)[nH]c(N)nc43)[C@H](O)[C@@H]2O)[C@@H](O)[C@H](O)[C@@H]1O [GDP-fucose]
IC50 ([3]; restated for the 0.2 kG scale production, quantity not given, read-out: inhibitor concentration ("40 μM inhibitor", see FIG. 5)): 40 µM | IC50 ([3]; standard assay: 480 nmole GDP-mannose, 50 mM Tris pH 7.5, 0.15 mM NADP+, 100 μl, increasing amounts of GDP-fucose, read-out: IC50): ~40 µM | catalytic activity of GDP-mannose dehydratase remaining (GDP-mannose dehydratase [4]; at 50 μM GDP-fucose): 10% | remaining catalytic activity of GDP-mannose dehydratase (GDP-mannose dehydratase [5]; at 50 μM GDP-fucose): 10% | inhibition of GDP-mannose dehydratase (GDP-mannose dehydratase [5]): strongly inhibited

Molecule: Nc1nc2c(ncn2[C@@H]2O[C@H](COP(=O)(O)OP(=O)(O)O)[C@@H](O)[C@H]2O)c(=O)[nH]1 [GDP]
inhibition of fucosyltransferases (fucosyltransferase V): inhibit; also recorded: potent inhibitor | inhibition of GDP-mannose dehydratase (GDP-mannose dehydratase [4]; literature statement): inhibit | inhibition of GDP-mannose dehydratase (GDP-mannose dehydratase [5]): known to inhibit | inhibition of fucosyltransferases (fucosyltransferases): known to inhibit

inhibitory potency relative to GDP (fold less potent) [6]: 10 ×
Molecule: Nc1nc2c(ncn2[C@@H]2O[C@H](COP(=O)(O)OP(=O)(O)OP(=O)(O)O)[C@@H](O)[C@H]2O)c(=O)[nH]1 [GTP]

Molecule: [Cl-].[Cl-].[Mg+2] [MgCl2]
% GDP-mannose Dehydratase Activity mUnit/ml (GDP-mannose dehydratase [2]; 1 mM metal ion): 560 mUnit/ml | % GDP-mannose Dehydratase Activity mUnit/ml (GDP-mannose dehydratase [2]; 10 mM metal ion): 610 mUnit/ml | % GDP-mannose Dehydratase Activity mUnit/ml (GDP-mannose dehydratase [2]; 20 mM metal ion): 590 mUnit/ml | effect on GDP-mannose dehydratase activity (GDP-mannose dehydratase [2]): essentially no effect | YEF B Activity % (YEF B; 1 mM metal ion): 110% | YEF B Activity % (YEF B; 10 mM metal ion): 110% | effect on YEF B activity (YEF B): somewhat stimulatory

Molecule: [Cl][Mn][Cl] [MnCl2]
% GDP-mannose Dehydratase Activity mUnit/ml (GDP-mannose dehydratase [2]; 1 mM metal ion): 580 mUnit/ml | % GDP-mannose Dehydratase Activity mUnit/ml (GDP-mannose dehydratase [2]; 10 mM metal ion): 570 mUnit/ml | % GDP-mannose Dehydratase Activity mUnit/ml (GDP-mannose dehydratase [2]; 20 mM metal ion): 620 mUnit/ml | effect on GDP-mannose dehydratase activity (GDP-mannose dehydratase [2]): essentially no effect | YEF B Activity % (YEF B; 1 mM metal ion): 60% | YEF B Activity % (YEF B; 10 mM metal ion): 25% | effect on YEF B activity (YEF B): severely inhibited in a dose dependent manner

Molecule: NC(=O)c1ccc[n+]([C@@H]2O[C@H](COP(=O)(O)OP(=O)(O)OC[C@H]3O[C@@H](n4cnc5c(N)ncnc54)[C@H](O)[C@@H]3O)[C@@H](O)[C@H]2O)c1 [NAD, NAD^+]
% GDP-mannose dehydratase activity ([7]; cofactor at 1 mM): not detected | substitution for NADP+ as cofactor ([7]; in place of NADP+): will not substitute for NADP^+

Molecule: NC(=O)c1ccc[n+]([C@@H]2O[C@H](COP(=O)(O)OP(=O)(O)OC[C@H]3O[C@@H](n4cnc5c(N)ncnc54)[C@H](OP(=O)(O)O)[C@@H]3O)[C@@H](O)[C@H]2O)c1 [NADP, NADP^+]
activity at 1000 µM ([7]; cofactor at 1 mM): 100%

Molecule: NC(=O)c1ccc[n+]([C@@H]2O[C@H](COP(=O)(O)OP(=O)(O)OC[C@H]3O[C@@H](n4cnc5c(N)ncnc54)[C@H](OP(=O)(O)O)[C@@H]3O)[C@@H](O)[C@H]2O)c1 [NADP]
% GDP-mannose dehydratase activity (GDP-mannose dehydratase [2]; 0.15 mM cofactor): 100% | % GDP-mannose dehydratase activity (GDP-mannose dehydratase [2]; 1 mM cofactor): 100%

Molecule: NC(=O)c1ccc[n+]([C@@H]2O[C@H](COP(=O)(O)OP(=O)(O)OC[C@H]3O[C@@H](n4cnc5c(N)ncnc54)[C@H](O)[C@@H]3O)[C@@H](O)[C@H]2O)c1 [NAD]
% GDP-mannose dehydratase activity (GDP-mannose dehydratase [2]; 1 mM cofactor): not detected

Molecule: Alkaline Phosphatase
% GDP-mannose dehydratase activity (GDP-mannose dehydratase [8]): not detected | % GDP-mannose dehydratase activity (GDP-mannose dehydratase [8]; listed as alkaline phosphatase): severely attenuated
